# In patent publication US20060142304A1, “Method for treating or preventing pruritic and neurogenic skin disorders” (priority 2004, published 2006):
# Structures can show the parent of a compound that is named as a salt.
# Assays:
# CD-1 mice [1] = experiment: Resiniferatoxin-induced neurogenic inflammation (ear edema) in the mouse ear; assay type: in vivo; details: for % Inhibition of the Ear Edema: topical to left ear (20 μL) immediately after resiniferatoxin (0.05%) challenge, 7-mm ear biopsy weight 30 minutes after, lidocaine 0.5% w/v, sertaconazole nitrate 1% w/v in 70% ethanol/30% propylene glycol
# Protocol: Eight Albino male CD-1 mice per group, 7-9 weeks old, were used. Induction of neurogenic inflammation in the mouse ear was based on known methods (Inoue H, et al., Br J Pharmacol. 110:1614-1620, 1993). A 20-μl volume of Resiniferatoxin (0.05%) prepared in acetone was applied to the left ears (8 mice per treatment group). The right ear was treated as a control and not treated. Lidocaine hydrochloride (Sigma Aldrich, St. Louis, Mo.) was prepared as a 0.5% w/v solution in 70% ethanol/30% propylene glycol vehicle. Sertaconazole nitrate (Grupo Ferrer International, Barcelona, Spain) was prepared as a 1.0% w/v solution in a 70% ethanol/30% propylene glycol vehicle and applied to the left ear (20 μL) immediately after resiniferatoxin challenge. The mice were sacrificed by CO2 inhalation 30 minutes after applying the solutions. The left and right ears were removed and a 7-mm biopsy was removed from each ear and weighed. The difference in biopsy weights between the right and left ear was calculated. The percent inhibition was calculated by comparing treatments to resiniferatoxin alone. Anti-neurogenic inflammation effects of compounds are evident as an inhibition of the increase in ear weight.
# CD-1 mice [2] = experiment: Substance P-induced itch-associated scratching behavior in mice; assay type: in vivo, mouse
# Text: In this model, an itch-associated response is induced by intradermal injection of the neuropetide, Substance-P, in mice, and scratching behavior is observed and quantitated. […] Clinically, scratching is used as an objective measure of itch since itch is a sensation which promotes the desire to scratch the stimulated area (Yosipovitch G., Definitions of Itch, in Itch Basic Mechanisms and Therapy, ed. Yosipovitch G., et al, 2003) Eight Albino male CD-1 mice per group, 7-9 weeks old, were used. Induction of scratching behavior in the mouse was based on known methods (Andoh T, et al., J Pharmacol Exp Ther. 286:1140-1145, 1998) and produces features similar to itch in humans. An itch-associated response was induced by intradermal injection of Substance P in CD-1 mice, and scratching behavior is observed and quantitated. Before the experiment, mice were individually housed in a plastic cage for at least 1 hour for acclimation. Mice are pre-treated for 30 minutes with topical application of Sertaconazole Nitrate (1%) prepared in 100% ethanol, to an area of the back, which had been shaved one day prior to the experiment. […] The number of scratches elicited during a 30 minute period after injection of Substance-P was determined by playback of the videotape.
SMILES,% Inhibition of the Ear Edema (CD-1 mice [1]),"reducing neurogenic inflammation (result in words) (CD-1 mice [1]; resiniferatoxin mouse ear model, compared to the control or untreated ear)","reduction of the itch compared to placebo (CD-1 mice [2]; Substance P scratching model, topical 1% sertaconazole nitrate)","Scratches per 30 min (Mean ± S. D.) (CD-1 mice [2]; topical 1% w/v in 100% ethanol on shaved back, 30 minutes pre-treatment, 300 ug Substance P intradermal, 30 minute period after injection)"
"CCN(CC)CC(=O)Nc1c(C)cccc1C [Lidocaine, Lidocaine hydrochloride]",28.7%,,,
"Clc1ccc(C(Cn2ccnc2)OCc2csc3c(Cl)cccc23)c(Cl)c1 (centres unmarked) [Sertaconazole Nitrate, Sertaconazole nitrate]",48.9%,highly effective,38.7%,39.8 ± 2.7
